Test results published in publication PMC10349806 (Nature Communications, 2023).
Values joined by “and” are separate entries in the source; they are usually repeats but may differ in a detail not shown here. Equal entries are not always repeated.

Molecular target: T1, PfCRT variant D338A (Plasmodium falciparum, UniProt Q9N623, A220S/D338A/I356T/K76T/M74I/N326S/N75E/Q271E/R371I)
T1 sequence (Q9N623 1-424 M74I/N75E/K76T/A220S/Q271E/N326S/D338A/I356T/R371I): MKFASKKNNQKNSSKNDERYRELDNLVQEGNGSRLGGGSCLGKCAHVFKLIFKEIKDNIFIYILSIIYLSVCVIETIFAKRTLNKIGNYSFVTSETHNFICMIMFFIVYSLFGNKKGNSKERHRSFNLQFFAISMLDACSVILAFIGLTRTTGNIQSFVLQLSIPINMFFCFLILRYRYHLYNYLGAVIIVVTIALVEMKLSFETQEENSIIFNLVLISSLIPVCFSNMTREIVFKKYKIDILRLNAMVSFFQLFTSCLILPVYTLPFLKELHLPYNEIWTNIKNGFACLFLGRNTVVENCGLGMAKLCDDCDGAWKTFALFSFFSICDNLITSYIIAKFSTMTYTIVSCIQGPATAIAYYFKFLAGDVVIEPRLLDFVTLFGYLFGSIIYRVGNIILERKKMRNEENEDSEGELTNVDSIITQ
Experiment: CQ uptake assay, oocytes expressing D338A
Type: cell-based
Description: Site-directed mutagenesis of PfCRT^Dd2 was performed as described using the megaprimer method with overlap extension[21],[54]. The primer pairs used are listed in Supplementary Table 6. Please note that a codon-optimized and oocyte-adapted version of PfCRT^Dd2 was used[22] (Supplementary Fig. 16). The resulting DNA fragment was cloned into the SP64T expression vector and verified by sequencing.
Oocytes were obtained as described previously. Briefly, adult (>2 years old) female X. laevis frogs (NASCO) were anesthetized in a cooled solution of ethyl 3-amino benzoate methanesulfonate (0.1%, w/v), followed by a surgical removal of parts of the ovary. The ovary lobes were carefully dissected and small pieces of oocytes were incubated in Ca^2+-free ND96 buffer (96 mM NaCl, 2 mM KCl, 1 mM MgCl2 buffered with 5 mM HEPES/NaOH, pH 7.5) supplemented with collagenase D (0.1%, w/v; Roche), BSA (0.5%, w/v), and 9 mm Na2HPO4 at 18 °C for 14-16 h while gentle shaking. After incubation, the oocytes were carefully washed several times with ND96 buffer (96 mM NaCl, 2 mM KCl, 1.8 mM CaCl2, 1 mM MgCl2 buffered with 5 mM HEPES/NaOH, pH 7.5) supplemented with 100 mg l^−1 gentamycin). Defolliculated and healthy-looking stage V-VI oocytes were manually selected for RNA microinjection. The RNA was generated as following: The codon-optimized sequences of PfCRT variants were cloned into the pSP64T expression vector. After vector linearization using the restriction endonucleases BamHI or SalI (New England Biolabs), transcription was performed using the in vitro SP6 mMessage mMachine Kit (Ambion)[34]. The obtained RNA was kept at −80 °C and diluted with nuclease-free water to a concentration of 0.6 μg μl^−1. Precision-bore glass capillary tubes (3.5-inch glass capillaries; Drummond Scientific Co.) were pulled on a vertical puller (P-87 Flaming/Brown micropipette puller, Sutter Instrument Co.), graduated, and placed on a microinjector (Nanoject II Auto-Nanoliter Injector, Drummond Scientific Co.). 50 nl of nuclease-free water alone (control oocytes) or 50 nl of 0.6 μg μl^−1 RNA were injected under stereomicroscopic control. Injected oocytes were incubated for 46–72 h at 18 °C with twice-daily buffer changes before usage in experiments.
Drug uptake assays were performed as described previously[21],[22],[24],[34]. […] The direction of radio-labeled drug transport is here from the mostly acidic extracellular solution (pH 4.5 or 6.0, as indicated) into the oocyte cytosol (pH ∼ 7.2), which corresponds to the efflux of drug from the acidic digestive vacuole (pH 5.2) into the parasite cytoplasm (pH 7.2). The topology of PfCRT in the oolemma is such that both the N- and C-terminus face the extracellular milieu[3],[22]. In the parasite, the N- and C-terminus face the lumen of the digestive vacuole. CQ uptake kinetics were performed by incubating oocytes in ND96 buffer adjusted to a pH of 4.5, 5.0, 5.5, or 6.0 and supplemented with 50 nM [^3H]CQ and one of 7 different CQ concentrations (10 µM, 50 µM, 100 µM, 200 µM, 300 µM, 400 µM, 500 µM CQ). The reaction was stopped at the 60 min time point, which is in the linear uptake range[22],[34] (Supplementary Fig. 17). For determination of the amount of drug uptake for each oocyte, the reaction medium was removed and the oocytes were washed three times with 2 ml of ice-cold ND96 buffer. Each oocyte was individually transferred to a scintillation vial containing 5% sodium dodecyl sulfate (200 μl) for lysis. The radioactivity of each sample was measured using a liquid scintillation analyzer Tri-Carb 4910 TR (PerkinElmer). Oocytes that were injected with water instead of RNA were analyzed in parallel, representing the uptake of a drug by diffusion and/or endogenous permeation pathways. The resulting value represents the “background“ level of drug accumulation in oocytes (in-depth discussion in[22]). […]

[1] = D338A, 50 µM CQ, 1 h, mean ± SEM

## CCN(CC)CCCC(C)Nc1ccnc2cc(Cl)ccc12 (stereo not drawn) [CQ, chloroquine]
[1]
  Activity at pH 4.5: 2.35 ± 0.19 pmol h-1 oocyte-1
  Activity at pH 6.0: 5.20 ± 0.52 pmol h-1 oocyte-1
D338A, CQ transport at pH 4.5 / pH 6.0
  R-value: 0.47 ± 0.06
pH 4.5, single replicates, Fig 1d left
  D338A transport activity pH 4.5: 2.81 pmol oocyte-1 h-1 and 2.11 pmol oocyte-1 h-1 and 2.14 pmol oocyte-1 h-1
pH 4.5 vs pH 6.0, Fig 1d left
  D338A R-value: 0.58 and 0.33 and 0.49
pH 6.0, single replicates, Fig 1d left
  D338A transport activity pH 6.0: 4.85 pmol oocyte-1 h-1 and 6.43 pmol oocyte-1 h-1 and 4.33 pmol oocyte-1 h-1
